# From ChEMBL document CHEMBL1909046, “DrugMatrix in vitro pharmacology data”
# Biological target: Protein phosphatase 3 catalytic subunit alpha (Homo sapiens, UniProt Q08209);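 also: inhibition of calcineurin (PP2B) enzyme activity, measured with DiFMUP as the substrate; in other assays of this panel Not Active means under 50% inhibition at 10 µM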
# Assay: not given
# Parameters: species or system Escherichia coli
# Settings: not given
row,Compound,IC50
1,CCn1cc(C(=O)O)c(=O)c2cnc(N3CCCC3)nc21 [PIROMIDIC ACID],Not Active
2,C[n+]1ccccc1/C=N/O.[Cl-] [PRALIDOXIME CHLORIDE],Not Active
3,COc1cc2nc(N3CCN(C(=O)c4ccco4)CC3)nc(N)c2cc1OC [PRAZOSIN],Not Active
4,C[C@]12C=CC(=O)C=C1CC[C@@H]1[C@@H]2[C@@H](O)C[C@@]2(C)[C@H]1CC[C@]2(O)C(=O)CO [PREDNISOLONE],Not Active
5,CC(=O)[C@H]1[C@H](C#N)C[C@H]2[C@@H]3CC=C4C[C@@H](O)CC[C@]4(C)[C@H]3CC[C@@]21C [PREGNENOLONE CARBONITRILE],Not Active
6,CCCN(CCC)S(=O)(=O)c1ccc(C(=O)O)cc1 [PROBENECID],Not Active
7,CCCNCC(O)COc1ccccc1C(=O)CCc1ccccc1 (stereo not drawn) [PROPAFENONE],Not Active
8,CCCOc1ccc(C(=O)OCCN(CC)CC)cc1N [PROPARACAINE],Not Active

# Biological target: T1, 5-hydroxytryptamine receptor 1A (Rattus norvegicus, UniProt P19327); also: in other assays of this panel Not Active means under 50% inhibition at 10 µM
# T1 sequence (P19327 whole entry): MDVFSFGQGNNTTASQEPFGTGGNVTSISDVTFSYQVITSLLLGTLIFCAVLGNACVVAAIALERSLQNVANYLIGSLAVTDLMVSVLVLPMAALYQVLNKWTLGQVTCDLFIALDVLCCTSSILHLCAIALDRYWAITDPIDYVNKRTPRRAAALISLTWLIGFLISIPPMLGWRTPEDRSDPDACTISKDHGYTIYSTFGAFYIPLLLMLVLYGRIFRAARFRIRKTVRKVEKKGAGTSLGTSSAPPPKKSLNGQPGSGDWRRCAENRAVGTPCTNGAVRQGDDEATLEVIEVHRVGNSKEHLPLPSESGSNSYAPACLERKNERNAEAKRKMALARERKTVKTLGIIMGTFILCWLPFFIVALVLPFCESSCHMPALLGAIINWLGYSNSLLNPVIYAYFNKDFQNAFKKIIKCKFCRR
# Assay: not given
# Assay type: cell membranes, CHO-K1, Membrane
# Settings: cho-k1
row,Compound,IC50
1,CCn1cc(C(=O)O)c(=O)c2cnc(N3CCCC3)nc21 [PIROMIDIC ACID],Not Active
2,C[n+]1ccccc1/C=N/O.[Cl-] [PRALIDOXIME CHLORIDE],Not Active
3,COc1cc2nc(N3CCN(C(=O)c4ccco4)CC3)nc(N)c2cc1OC [PRAZOSIN],Not Active
4,C[C@]12C=CC(=O)C=C1CC[C@@H]1[C@@H]2[C@@H](O)C[C@@]2(C)[C@H]1CC[C@]2(O)C(=O)CO [PREDNISOLONE],Not Active
5,CC(=O)[C@H]1[C@H](C#N)C[C@H]2[C@@H]3CC=C4C[C@@H](O)CC[C@]4(C)[C@H]3CC[C@@]21C [PREGNENOLONE CARBONITRILE],Not Active
6,CCCN(CCC)S(=O)(=O)c1ccc(C(=O)O)cc1 [PROBENECID],Not Active
7,CCCOc1ccc(C(=O)OCCN(CC)CC)cc1N [PROPARACAINE],Not Active

# Same assay, conditions: read-out: IC50
row,Compound,IC50 [µM]
1,CCCNCC(O)COc1ccccc1C(=O)CCc1ccccc1 (stereo not drawn) [PROPAFENONE],1.64

# Same assay, conditions: read-out: Ki
row,Compound,Ki [µM]
1,CCCNCC(O)COc1ccccc1C(=O)CCc1ccccc1 (stereo not drawn) [PROPAFENONE],0.935

# Biological target: T2, Muscarinic acetylcholine receptor M2 (Homo sapiens, UniProt P08172); also: in other assays of this panel Not Active means under 50% inhibition at 10 µM
# T2 sequence (P08172 whole entry): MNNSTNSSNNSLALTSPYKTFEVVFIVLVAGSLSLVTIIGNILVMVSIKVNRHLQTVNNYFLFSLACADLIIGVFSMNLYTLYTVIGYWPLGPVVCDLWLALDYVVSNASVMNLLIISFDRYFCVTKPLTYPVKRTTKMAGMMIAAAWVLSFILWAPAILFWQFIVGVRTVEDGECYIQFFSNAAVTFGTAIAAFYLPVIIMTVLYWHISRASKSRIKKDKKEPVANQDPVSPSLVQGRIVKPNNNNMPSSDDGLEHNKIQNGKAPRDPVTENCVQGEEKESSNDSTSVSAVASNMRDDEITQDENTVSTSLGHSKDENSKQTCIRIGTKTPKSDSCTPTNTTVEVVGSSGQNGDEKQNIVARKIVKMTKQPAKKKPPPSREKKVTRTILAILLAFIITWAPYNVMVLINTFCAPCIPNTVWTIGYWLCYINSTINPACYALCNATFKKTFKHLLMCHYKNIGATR
# Assay: not given
# Assay type: cell membranes, CHO-K1, Membrane
# Settings: cho-k1
row,Compound,IC50
1,CCn1cc(C(=O)O)c(=O)c2cnc(N3CCCC3)nc21 [PIROMIDIC ACID],Not Active
2,C[n+]1ccccc1/C=N/O.[Cl-] [PRALIDOXIME CHLORIDE],Not Active
3,COc1cc2nc(N3CCN(C(=O)c4ccco4)CC3)nc(N)c2cc1OC [PRAZOSIN],Not Active
4,C[C@]12C=CC(=O)C=C1CC[C@@H]1[C@@H]2[C@@H](O)C[C@@]2(C)[C@H]1CC[C@]2(O)C(=O)CO [PREDNISOLONE],Not Active
5,CC(=O)[C@H]1[C@H](C#N)C[C@H]2[C@@H]3CC=C4C[C@@H](O)CC[C@]4(C)[C@H]3CC[C@@]21C [PREGNENOLONE CARBONITRILE],Not Active
6,CCCN(CCC)S(=O)(=O)c1ccc(C(=O)O)cc1 [PROBENECID],Not Active
7,CCCNCC(O)COc1ccccc1C(=O)CCc1ccccc1 (stereo not drawn) [PROPAFENONE],Not Active
8,CCCOc1ccc(C(=O)OCCN(CC)CC)cc1N [PROPARACAINE],Not Active

# Test system: not listed separately
# Assay: DRUGMATRIX: Leukotriene, BLT (LTB4) radioligand binding (ligand: [3H]LTB4)
# Assay type: cell membranes, Membrane
# Settings: u-937; Not Active = under 50% inhibition at 10 µM
Compound,IC50,Ki
CCn1cc(C(=O)O)c(=O)c2cnc(N3CCCC3)nc21 [PIROMIDIC ACID],Not Active,Not Active
C[n+]1ccccc1/C=N/O.[Cl-] [PRALIDOXIME CHLORIDE],Not Active,Not Active
COc1cc2nc(N3CCN(C(=O)c4ccco4)CC3)nc(N)c2cc1OC [PRAZOSIN],Not Active,Not Active
C[C@]12C=CC(=O)C=C1CC[C@@H]1[C@@H]2[C@@H](O)C[C@@]2(C)[C@H]1CC[C@]2(O)C(=O)CO [PREDNISOLONE],Not Active,Not Active
CC(=O)[C@H]1[C@H](C#N)C[C@H]2[C@@H]3CC=C4C[C@@H](O)CC[C@]4(C)[C@H]3CC[C@@]21C [PREGNENOLONE CARBONITRILE],Not Active,Not Active
CCCN(CCC)S(=O)(=O)c1ccc(C(=O)O)cc1 [PROBENECID],Not Active,Not Active
CCCNCC(O)COc1ccccc1C(=O)CCc1ccccc1 (stereo not drawn) [PROPAFENONE],Not Active,Not Active
CCCOc1ccc(C(=O)OCCN(CC)CC)cc1N [PROPARACAINE],Not Active,Not Active

# Biological target: T3, Thromboxane-A synthase (Homo sapiens, UniProt P24557);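 also: enzyme inhibition assay with PGH2 supplied as substrate; in other assays of this panel Not Active means under 50% inhibition at 10 µM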
# T3 sequence (P24557 whole entry): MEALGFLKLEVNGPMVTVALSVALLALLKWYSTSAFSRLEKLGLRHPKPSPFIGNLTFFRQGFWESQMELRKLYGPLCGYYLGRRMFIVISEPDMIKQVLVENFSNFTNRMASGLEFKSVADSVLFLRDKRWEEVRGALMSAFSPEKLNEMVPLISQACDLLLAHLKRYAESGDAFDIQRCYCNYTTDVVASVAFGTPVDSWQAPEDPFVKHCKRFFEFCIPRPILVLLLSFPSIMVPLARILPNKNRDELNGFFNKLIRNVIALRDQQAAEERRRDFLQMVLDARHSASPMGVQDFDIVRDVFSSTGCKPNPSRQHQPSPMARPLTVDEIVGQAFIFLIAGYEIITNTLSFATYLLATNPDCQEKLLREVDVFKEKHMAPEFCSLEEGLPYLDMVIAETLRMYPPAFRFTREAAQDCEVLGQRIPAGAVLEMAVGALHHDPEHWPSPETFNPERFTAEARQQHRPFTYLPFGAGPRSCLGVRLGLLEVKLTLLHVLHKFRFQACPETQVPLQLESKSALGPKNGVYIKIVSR
# Assay: biochemical
# Assay type: tissue-based, Platelet
# Settings: platelet
row,Compound,IC50
1,CCn1cc(C(=O)O)c(=O)c2cnc(N3CCCC3)nc21 [PIROMIDIC ACID],Not Active
2,C[n+]1ccccc1/C=N/O.[Cl-] [PRALIDOXIME CHLORIDE],Not Active
3,COc1cc2nc(N3CCN(C(=O)c4ccco4)CC3)nc(N)c2cc1OC [PRAZOSIN],Not Active
4,C[C@]12C=CC(=O)C=C1CC[C@@H]1[C@@H]2[C@@H](O)C[C@@]2(C)[C@H]1CC[C@]2(O)C(=O)CO [PREDNISOLONE],Not Active
5,CC(=O)[C@H]1[C@H](C#N)C[C@H]2[C@@H]3CC=C4C[C@@H](O)CC[C@]4(C)[C@H]3CC[C@@]21C [PREGNENOLONE CARBONITRILE],Not Active
6,CCCN(CCC)S(=O)(=O)c1ccc(C(=O)O)cc1 [PROBENECID],Not Active
7,CCCNCC(O)COc1ccccc1C(=O)CCc1ccccc1 (stereo not drawn) [PROPAFENONE],Not Active
8,CCCOc1ccc(C(=O)OCCN(CC)CC)cc1N [PROPARACAINE],Not Active

# Biological target: Substance-P receptor (Homo sapiens, UniProt P25103); also: in other assays of this panel Not Active means under 50% inhibition at 10 µM
# Assay: not given
# Assay type: cell membranes, CHO, Membrane
# Settings: cho
# Substance-P receptor, sequence (P25103 whole entry): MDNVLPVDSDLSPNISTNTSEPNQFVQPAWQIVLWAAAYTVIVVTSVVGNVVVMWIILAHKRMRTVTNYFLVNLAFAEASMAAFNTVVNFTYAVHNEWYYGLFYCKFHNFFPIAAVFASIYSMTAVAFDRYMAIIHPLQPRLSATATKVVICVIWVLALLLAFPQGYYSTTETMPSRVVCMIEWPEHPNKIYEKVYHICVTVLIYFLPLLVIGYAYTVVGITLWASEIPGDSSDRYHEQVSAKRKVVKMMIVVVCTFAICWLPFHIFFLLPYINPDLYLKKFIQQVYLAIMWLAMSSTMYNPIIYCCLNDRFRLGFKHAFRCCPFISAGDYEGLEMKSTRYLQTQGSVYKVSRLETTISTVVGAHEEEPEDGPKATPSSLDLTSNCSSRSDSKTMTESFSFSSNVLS
row,Compound,IC50
1,CCn1cc(C(=O)O)c(=O)c2cnc(N3CCCC3)nc21 [PIROMIDIC ACID],Not Active
2,C[n+]1ccccc1/C=N/O.[Cl-] [PRALIDOXIME CHLORIDE],Not Active
3,COc1cc2nc(N3CCN(C(=O)c4ccco4)CC3)nc(N)c2cc1OC [PRAZOSIN],Not Active
4,C[C@]12C=CC(=O)C=C1CC[C@@H]1[C@@H]2[C@@H](O)C[C@@]2(C)[C@H]1CC[C@]2(O)C(=O)CO [PREDNISOLONE],Not Active
5,CC(=O)[C@H]1[C@H](C#N)C[C@H]2[C@@H]3CC=C4C[C@@H](O)CC[C@]4(C)[C@H]3CC[C@@]21C [PREGNENOLONE CARBONITRILE],Not Active
6,CCCN(CCC)S(=O)(=O)c1ccc(C(=O)O)cc1 [PROBENECID],Not Active
7,CCCNCC(O)COc1ccccc1C(=O)CCc1ccccc1 (stereo not drawn) [PROPAFENONE],Not Active
8,CCCOc1ccc(C(=O)OCCN(CC)CC)cc1N [PROPARACAINE],Not Active

# Test system: not listed separately
# Assay: DRUGMATRIX: Interleukin IL-1 radioligand binding (ligand: [125I] interleukin 1beta)
# Assay type: cell membranes, Membrane
# Settings: nih3t3; Not Active = under 50% inhibition at 10 µM
Compound,IC50,Ki
CCn1cc(C(=O)O)c(=O)c2cnc(N3CCCC3)nc21 [PIROMIDIC ACID],Not Active,Not Active
C[n+]1ccccc1/C=N/O.[Cl-] [PRALIDOXIME CHLORIDE],Not Active,Not Active
COc1cc2nc(N3CCN(C(=O)c4ccco4)CC3)nc(N)c2cc1OC [PRAZOSIN],Not Active,Not Active
C[C@]12C=CC(=O)C=C1CC[C@@H]1[C@@H]2[C@@H](O)C[C@@]2(C)[C@H]1CC[C@]2(O)C(=O)CO [PREDNISOLONE],Not Active,Not Active
CC(=O)[C@H]1[C@H](C#N)C[C@H]2[C@@H]3CC=C4C[C@@H](O)CC[C@]4(C)[C@H]3CC[C@@]21C [PREGNENOLONE CARBONITRILE],Not Active,Not Active
CCCN(CCC)S(=O)(=O)c1ccc(C(=O)O)cc1 [PROBENECID],Not Active,Not Active
CCCNCC(O)COc1ccccc1C(=O)CCc1ccccc1 (stereo not drawn) [PROPAFENONE],Not Active,Not Active
CCCOc1ccc(C(=O)OCCN(CC)CC)cc1N [PROPARACAINE],Not Active,Not Active
